Values of other authors as cited in patent US10538548B2, “Material mixture containing rubusoside or alpha glycosylrubusoside, for enhancing sweet taste” (SYMRISE AG, priority 2014, dated 2020).

Details: pure rubusoside

Compound: C=C1C[C@@]23CC[C@H]4[C@@](C)(CCC[C@@]4(C)C(=O)O[C@@H]4O[C@H](CO)[C@@H](O)[C@H](O)[C@H]4O)[C@@H]2CC[C@]1(O[C@@H]1O[C@H](CO)[C@@H](O)[C@H](O)[C@H]1O)C3 [rubusoside, Rubusoside]
- sweetening power relative to sugar: 200 times
